Tests used:
[1] = in vivo; cited from earlier work
[2] = system: colon cancer; conditions: cited from earlier work
[3] = system: neuromuscular junction model (motoneurons synapsed onto skeletal muscle); assay type: cell-based

Question: Which activity of stereoisomer [1] does the source give for `CC1(C)C(C=C(Cl)Cl)C1C(=O)OCc1cccc(Oc2ccccc2)c1` (stereo not drawn) [1R-cis-, permethrin] here?
Answer: The activity of stereoisomer was “active”.

Question: For `CC1(C)C(C=C(Cl)Cl)C1C(=O)OCc1cccc(Oc2ccccc2)c1` (stereo not drawn) [1R-trans-, permethrin], which activity of stereoisomer [1] is on record?
Answer: Its activity of stereoisomer is “active”.

Question: Which “optimal uracil to Tegafur ratio for maximizing 5-FU in the tumor relative to blood” value [2] does the source give for `O=c1[nH]c(=O)n(C2CCCO2)cc1F` (stereo not drawn) [Tegafur] here?
Answer: The value was 4 to 1.

Question: With `CC1(C)C(C=C(Cl)Cl)C1C(=O)OCc1cccc(Oc2ccccc2)c1` (stereo not drawn) [cis-permethrin] as the molecule, how does the “toxicity relative to trans isomers” value [1] read?
Answer: Its value is “about ten times more toxic”.

Question: Which “effect on toxicity of Tegafur” value [2] does the source give for `O=c1cc[nH]c(=O)[nH]1` [uracil] here?
Answer: Its value is “enhances the toxicity of Tegafur”.

Question: Which dip frequency sensitivity [3] does the source give for curare here?
Answer: Its dip frequency sensitivity is “approximately exponential”.

Question: And the “effect on contractile response” value [3]?
Answer: The value was “inhibitory based on concentration”.

Question: What about the “form of fitted dose-response curve of muscle contraction” value [3] of the same molecule?
Answer: The value was “biphasic curve”.

Question: And the “plateau region of biphasic curve versus stimulation frequency” value [3]?
Answer: Its value is “shrinks exponentially for increasing frequency”.

From patent US11022605B2 (priority 2016, dated 2021)
